We go through one compound from patent US8454857B2, “Polymerizable liquid crystal compounds, polymerizable liquid crystal compositions, liquid crystalline polymers and optically anisotropic materials” (Zeon Corporation, priority 2008, dated 2013).

SMILES strings stand for the structures.

What all share (type): physicochemical
A short description of data set [1]: Mutual solubility at 23° C. by naked eye observation when forming the cured film. More on the design: key: A case where turbidity was not observed was evaluated as “Good”; a case where turbidity was observed was evaluated as “Bad”. The note with it: naked eye observation of turbidity. Here is the method: 100 parts of the polymerizable liquid crystal compound (1 to 3) was dissolved in 153 parts of cyclopentanone. After the addition of 3.3 parts of a photoinitiator (“Irgacure 379” manufactured by Ciba Specialty Chemicals Co., Ltd.), 6 parts of a polymerizable chiral compound (compound shown by the formula (X)), and 11.6 parts of a surfactant (“KH-40” manufactured by AGC Seimi Chemical Co., Ltd.; 1 wt % cyclopentanone solution), the components were homogenously dissolved to prepare a polymerizable liquid crystal composition solution.
When forming the cured film of the compound, the mutual solubility of the compound at 23° C. was evaluated by naked eye observation. A case where turbidity was not observed was evaluated as “Good”, and a case where turbidity was observed was evaluated as “Bad”.

A short description of data set [2]: Measurement of optical anisotropy (value Δn) of cured polymer film. The note with it: cured polymer film 4 μm, 546 nm, Δn=Re/d. Here is the method:
100 parts of the polymerizable liquid crystal compound (1 to 3) was dissolved in 233 parts of cyclopentanone. 2.7 parts of a photoinitiator (“Irgacure 907” manufactured by Ciba Specialty Chemicals Co., Ltd.) was homogenously dissolved in the solution. The resulting solution was applied to a glass substrate provided with a rubbed polyimide alignment film using a bar coater (“SA-203” manufactured by Tester Sangyo Co., Ltd., Rod No. 4, shaft diameter: 12.7 mm). After drying the resulting film at 100° C. for 5 minutes on a hot plate, ultraviolet rays (1000 mJ/cm^2) were applied to the film from a mercury lamp to obtain a cured polymer film having a thickness of 4 μm.
The extinction position (θ) of the cured film was measured using an optical microscope (“ECLIPSE E600POL (transmission/reflection type)” manufactured by Nikon Corporation, equipped with a sensitive tint plate, a λ/4 wave plate, a Sénarmont compensator, and a GIF filter (546 nm). The retardation (Re) was calculated by “Re=λ(546 nm)×θ/180”. The value Δn was calculated by “Δn=Re/d” (where, d is the thickness of the liquid crystal layer). The calculation results are shown in Table 1.

Data set [3] in a line: Measurement of phase transition temperature (polarizing optical microscope, heated 30° C. to 300° C. and cooled). Here is the method:
10 mg of the polymerizable liquid crystal compound (the polymerizable liquid crystal compounds 1 and 2 obtained in Examples 1 and 2, and a polymerizable liquid crystal compound shown by the following formula (3) (“LC242” manufactured by BASF) (Comparative Example 1) (hereinafter referred to as “polymerizable liquid crystal compound 3”)) was weighed, and placed between two glass substrates provided with a rubbed polyimide alignment film.
The substrates were heated from 30° C. to 300° C. on a hot plate, and then cooled to 30° C. A change in structure during a change in temperature was observed using a polarizing optical microscope (“ECLIPSE LV100POL” manufactured by Nikon Corporation) to determine the phase transition temperature.
In Table 1, “C” indicates “Crystal”, “N” indicates “Nematic”, and “I” indicates “Isotropic”.

Data set [4] can be described thus: Solubility in cyclopentanone at 60° C., 40 wt % solution. The arrangement: key: a case where the compound was dissolved in cyclopentanone is indicated by “Good”; a case where the compound was not dissolved in cyclopentanone is indicated by “Bad”. Particulars: compound concentration 40 wt %. Here is the method: The solubility of the compound at 60° C. was evaluated when preparing a solution having a compound concentration of 40 wt %. In Table 1, a case where the compound was dissolved in cyclopentanone is indicated by “Good”, and a case where the compound was not dissolved in cyclopentanone is indicated by “Bad”.

For `C=CC(=O)OCCCCOC(=O)Oc1ccc(C(=O)Oc2ccc(OC(=O)c3ccc(OC(=O)OCCCCOC(=O)C=C)cc3)c(C)c2)cc1` [Polymerizable liquid crystal compound 3], the Mutual solubility result in data set [1] is given as “Good”. In data set [2], the Δn was 0.142. Further, the “Liquid crystallinity temperature range” value in data set [3] (heated from 30° C. to 300° C., then cooled to 30° C., between glass substrates with rubbed polyimide alignment film) turned out to be 63 °C. In addition, the “liquid crystallinity temperature range (in words)” value in data set [3] (summary of Table 1) is “liquid crystallinity within a narrow temperature range”. Also, in data set [4], the Solubility entry is “Good”.
